# Measurements reported in US7186714B2, “Imidazo[1,2-α]pyridine derivatives for the prophylaxis and treatment of herpes viral infections” (SmithKline Beecham Corporation, priority 2001, dated 2007).
# Test system: HSV-1
# Test: HSV infection of Vero 76 cells, viral DNA detected by hybridization capture with chemiluminescence
# Assay type: cell-based
# Conditions: Human alphaherpesvirus 1; HSV-1 in Vero 76 cells, MOI=0.001, incubated 40–48 hours with test compound
# Description: Vero 76 cells were maintained in MEM with Earle's salts, L-glutamine, 8% FBS (Hyclone, A-1111-L) and 100 units/mL Penicillin-100 μg/mL Streptomycin. For assay conditions, FBS was reduced to 2%. Cells are seeded into 96-well tissue culture plates at a density of 5×10^4 cells/well after being incubated for 45 min at 37° C. in the presence of HSV-1 or HSV-2 (MOI=0.001). Test compounds are added to the wells and the plates are incubated at 37° C. for 40–48 hours. Cell lysates are prepared as follows: media was removed and replaced with 150 μL/well 0.2 N NaOH with 1% Igepal CA 630 or NP-40. Plates were incubated up to 14 days at room temperature in a humidified chamber to prevent evaporation.
# For the detection probe, a gel-purified, digoxigenin-labeled, 710-bp PCR fragment of the HSV UL-15 sequence was utilized. PCR conditions included 0.5 μM primers, 180 μM dTTP, 20 μM dUTP-digoxigenin (Boehringer Mannheim 1558706), 200 μM each of dATP, dCTP, and dGTP, 1×PCR Buffer II (Perkin Elmer), 2.5 mM MgCl2, 0.025 units/μL of AmpliTaq Gold polymerase (Perkin Elmer), and 5 ng of gel-purified HSV DNA per 100 μL Extension conditions were 10 min at 95° C., followed by 30 cycles of 95° C. for 1 min, 55° C. for 30 sec, and 72° C. for 2 min. The amplification was completed with a 10-min incubation at 72° C. Primers were selected to amplify a 728 bp probe spanning a section of the HSV1 UL15 open reading frame (nucleotides 249–977). Single-stranded transcripts were purified with Promega M13 Wizard kits. The final product was mixed 1:1 with a mixture of 6 M GuSCN, 100 mM EDTA and 200 μg/mL herring sperm DNA and stored at 4° C.
# The capture DNA plasmid (HSV UL13 region in pUC) was linearized by cutting with XbaI, denatured for 15 min at 95° C. and diluted immediately into Reacti-Bind DNA Coating Solution (Pierce, 17250, diluted 1:1 with TE buffer, pH 8) at 1 ng/μL 75 μL/well were added to Corning (#3922 or 9690) white 96-well plates and incubated at room temperature for at least 4 hrs before washing twice with 300 μL/well 0.2×SSC/0.05% Tween-20 (SSC/T buffer). The plates were then incubated overnight at room temperature with 150 μL/well 0.2 N NaOH, 1% IGEPAL and 10 μg/mL herring sperm DNA.
# Twenty-seven (27) μL of cell lysate was combined with 45 μL of hybridization solution (final concentration: 3M GuSCN, 50 mM EDTA, 100 μg/ml salmon sperm DNA, 5×Denhardt's solution, 0.25×APE, and 5 ng of the digoxigenin-labeled detection probe). APE is 1.5 M NH4-acetate, 0.15 M ammonium phosphate monobasic, and 5 mM EDTA adjusted to pH 6.0. Mineral oil (50 μL) was added to prevent evaporation. The hybridization plates were incubated at 95° C. for 10 minutes to denature the DNA, then incubated at 42° C. overnight. The wells were washed 6× with 300 μL/well SSC/T buffer then incubated with 75 μL/well anti-digoxigenin-HRP-conjugated antibody (Boehringer Mannheim 1207733, 1:5000 in TE) for 30 min at room temperature. The wells were washed 6× with 300 μL/well with PBS/0.05% Tween-20 before 75 μL/well SuperSignal LBA substrate (Pierce) was added. The plates were incubated at room temperature for 30 minutes and chemiluminescence was measured in a Wallac Victor reader.
row,SMILES,IC50 [µM]
1,"Nc1cccn2c(-c3ccnc(NC4CCCC4)n3)c(-c3ccc(F)cc3)nc12 [Example 1, 3-[2-(Cyclopentylamino)-4-pyrimidinyl]-2-(4-fluorophenyl)imidazo[1,2-α]pyridin-8-amine]",0.6
2,"Fc1ccc(-c2nc3c(Cl)cccn3c2-c2ccnc(NC3CCCC3)n2)cc1 [Example 2, 4-[8-Chloro-2-(4-fluorophenyl)imidazo[1,2-α]pyridin-3-yl]-N-cyclopentyl-2-pyrimidinamine]",3.9
3,"Fc1ccc(-c2nc3c(NC4CCCC4)cccn3c2-c2ccnc(NC3CCCC3)n2)cc1 [Example 3, N-Cyclopentyl-3-[2-(cyclopentylamino)-4-pyrimidinyl]-2-(4-fluorophenyl)imidazo[1,2-α]pyridin-8-amine]",0.4
4,"Fc1ccc(-c2nc3c(N4CCCC4)cccn3c2-c2ccnc(NC3CCCC3)n2)cc1 [Example 4, N-Cyclopentyl-4-[2-(4-fluorophenyl)-8-(1-pyrrolidinyl)imidazo[1,2-α]pyridin-3-yl]-2-pyrimidinamine]",1.4
5,"CCCCNc1cccn2c(-c3ccnc(NC4CCCC4)n3)c(-c3ccc(F)cc3)nc12 [Example 5, N-Butyl-3-[2-(cyclopentylamino)-4-pyrimidinyl]-2-(4-fluorophenyl)imidazo[1,2-α]pyridin-8-amine]",0.65
6,"COCCNc1cccn2c(-c3ccnc(NC4CCCC4)n3)c(-c3ccc(F)cc3)nc12 [Example 6, 3-[2-(Cyclopentylamino)-4-pyrimidinyl]-2-(4-fluorophenyl)-N-(2-methoxyethyl)imidazo[1,2-α]pyridin-8-amine]",0.34
7,"CNc1nccc(-c2c(-c3ccc(F)cc3)nc3c(Cl)cccn23)n1 [Example 7, 4-[8-Chloro-2-(4-fluorophenyl)imidazo[1,2-α]pyridin-3-yl]-N-methyl-2-pyrimidinamine]",2.4
8,"CNc1nccc(-c2c(-c3ccc(F)cc3)nc3c(NC4CCCC4)cccn23)n1 [Example 8, N-Cyclopentyl-2-(4-fluorophenyl)-3-[2-(methylamino)-4-pyrimidinyl]imidazo[1,2-α]pyridin-8-amine]",> 5
9,"COc1ccc(-c2nc3c(Cl)cccn3c2-c2ccnc(NC3CCCC3)n2)cc1 [Example 9, 4-[8-Chloro-2-(4-methoxyphenyl)imidazo[1,2-α]pyridin-3-yl]-N-cyclopentyl-2-pyrimidinamine]",1.2
10,"COc1ccc(-c2nc3c(NC4CCCC4)cccn3c2-c2ccnc(NC3CCCC3)n2)cc1 [Example 10, N-Cyclopentyl-3-[2-(cyclopentylamino)-4-pyrimidinyl]-2-(4-methoxyphenyl)imidazo[1,2-α]pyridin-8-amine]",1.75
11,"Oc1ccc(-c2nc3c(NC4CCCC4)cccn3c2-c2ccnc(NC3CCCC3)n2)cc1 [Example 11, 4-{8-(Cyclopentylamino)-3-[2-(cyclopentylamino)-4-pyrimidinyl]imidazo[1,2-α]pyridin-2-yl}phenol]",3.3
12,"COc1cccc(-c2nc3c(Cl)cccn3c2-c2ccnc(NC3CCCC3)n2)c1 [Example 15, 4-[8-Chloro-2-(3-methoxyphenyl)imidazo[1,2-α]pyridin-3-yl]-N-cyclopentyl-2-pyrimidinamine]",2.3
13,"COc1cccc(-c2nc3c(NC4CCCC4)cccn3c2-c2ccnc(NC3CCCC3)n2)c1 [Example 16, N-Cyclopentyl-3-[2-(cyclopentylamino)-4-pyrimidinyl]-2-(3-methoxyphenyl)imidazo[1,2-α]pyridin-8-amine]",0.37
14,"Oc1cccc(-c2nc3c(NC4CCCC4)cccn3c2-c2ccnc(NC3CCCC3)n2)c1 [Example 17, 3-{8-(Cyclopentylamino)-3-[2-(cyclopentylamino)-4-pyrimidinyl]imidazo[1,2-α]pyridin-2-yl}phenol]",3.1
15,"C=CCOc1cccc(-c2nc3c(NC4CCCC4)cccn3c2-c2ccnc(NC3CCCC3)n2)c1 [Example 18, 2-[3-(Allyloxy)phenyl]-N-cyclopentyl-3-[2-(cyclopentylamino)-4-pyrimidinyl]imidazo[1,2-α]pyridin-8-amine]",0.34
16,"Cc1ccc(-c2nc3c(Cl)cccn3c2-c2ccnc(NC3CCCC3)n2)cc1 [Example 19, 4-[8-Chloro-2-(4-methylphenyl)imidazo[1,2-α]pyridin-3-yl]-N-cyclopentyl-2-pyrimidinamine]",3.74
17,"Cc1ccc(-c2nc3c(NC4CCCC4)cccn3c2-c2ccnc(NC3CCCC3)n2)cc1 [Example 20, N-Cyclopentyl-3-[2-(cyclopentylamino)-4-pyrimidinyl]-2-(4-methylphenyl)imidazo[1,2-α]pyridin-8-amine]",0.71
18,"COCCNc1cccn2c(-c3ccnc(NC4CCCC4)n3)c(-c3ccc(C)cc3)nc12 [Example 21, 3-[2-(Cyclopentylamino)-4-pyrimidinyl]-N-(2-methoxyethyl)-2-(4-methylphenyl)imidazo[1,2-α]pyridin-8-amine]",0.64
19,"Cc1ccc(-c2nc3c(N4CCOCC4)cccn3c2-c2ccnc(NC3CCCC3)n2)cc1 [Example 22, N-Cyclopentyl-4-[2-(4-methylphenyl)-8-(4-morpholinyl)imidazo[1,2-α]pyridin-3-yl]-2-pyrimidinamine]",0.84
20,"Clc1cccn2c(-c3ccnc(NC4CC4)n3)c(-c3ccc4ccccc4c3)nc12 [Example 23, 4-[8-Chloro-2-(2-naphthyl)imidazo[1,2-α]pyridin-3-yl]-N-cyclopropyl-2-pyrimidinamine]",0.21
21,"c1ccc2cc(-c3nc4c(NC5CC5)cccn4c3-c3ccnc(NC4CC4)n3)ccc2c1 [Example 24, N-Cyclopropyl-3-[2-(cyclopropylamino)-4-pyrimidinyl]-2-(2-naphthyl)imidazo[1,2-α]pyridin-8-amine]",0.56
22,"N#Cc1ccc(-c2nc3c(Cl)cccn3c2-c2ccnc(NC3CCCC3)n2)cc1 [Example 25, 4-{8-Chloro-3-[2-(cyclopentylamino)-4-pyrimidinyl]imidazo[1,2-α]pyridin-2-yl}benzonitrile]",0.3
23,"N#Cc1ccc(-c2nc3c(NC4CCCC4)cccn3c2-c2ccnc(NC3CCCC3)n2)cc1 [Example 26, 4-{8-(Cyclopentylamino)-3-[2-(cyclopentylamino)-4-pyrimidinyl]imidazo[1,2-α]pyridin-2-yl}benzonitrile]",0.31
24,"N#Cc1ccc(-c2nc3c(N4CCOCC4)cccn3c2-c2ccnc(NC3CCCC3)n2)cc1 [Example 27, 4-[3-[2-(Cyclopentylamino)-4-pyrimidinyl]-8-(4-morpholinyl)-imidazo[1,2-α]pyridin-2-yl]benzonitrile]",0.2
25,"NC(=O)c1ccc(-c2nc3c(N4CCOCC4)cccn3c2-c2ccnc(NC3CCCC3)n2)cc1 [Example 28, 4-[3-[2-(Cyclopentylamino)-4-pyrimidinyl]-8-(4-morpholinyl)imidazo[1,2-α]pyridin-2-yl]benzamide]",6.3
26,"NC(=O)c1ccc(-c2nc3c(NC4CCCC4)cccn3c2-c2ccnc(NC3CCCC3)n2)cc1 [Example 29, 4-{8-(Cyclopentylamino)-3-[2-(cyclopentylamino)-4-pyrimidinyl]imidazo[1,2-α]pyridin-2-yl}benzamide]",> 5
27,"O=[N+]([O-])c1cccc(-c2nc3c(Cl)cccn3c2-c2ccnc(NC3CCCC3)n2)c1 [Example 30, N-{4-[8-Chloro-2-(3-nitrophenyl)imidazo[1,2-α]pyridin-3-yl]-2-pyrimidinyl}-N-cyclopentylamine]",1.6
28,"O=[N+]([O-])c1cccc(-c2nc3c(N4CCOCC4)cccn3c2-c2ccnc(NC3CCCC3)n2)c1 [Example 31, N-Cyclopentyl-4-[8-(4-morpholinyl)-2-(3-nitrophenyl)imidazo[1,2-α]pyridin-3-yl]-2-pyrimidinamine]",1.2
29,"Nc1cccc(-c2nc3c(Cl)cccn3c2-c2ccnc(NC3CCCC3)n2)c1 [Example 32, 4-[2-(3-Aminophenyl)-8-chloroimidazo[1,2-α]pyridin-3-yl]-N-cyclopentyl-2-pyrimidinamine]",3.3
